Test results as given in patent publication US4042695A, “Thiaxanthene derivatives, compositions thereof and methods of treating therewith” (priority 1972, dated 1977).
Like-named read-outs stand apart in the source and are kept apart here.

Assays:
[1] = Catalepsy-inducing effect in rats; assay type: in vivo, male Wistar rats; details: rat, in vivo, sc
Method: (§1) Reference is made to L. Juluo: "On the Interaction between Neuroleptics and Antiparkinson Drugs." Modern Problems of Pharmacopsychiatry, vol. 5, pg, 50-54. The test may be described as follows:
(§2) Five animals are used at each dose level.
(§3) The test compound is injected subcutaneously (s.c.)
(§4) Injection volume is 5 ml of the vehicle/kg b.w.
(§5) Except when otherwise stated saline is used as vehicle.
(§6) The animals are placed in the middle of a vertical wire netting (50 cm/49 cm) 60, 120, 180, 240, 300 and 360 minutes after injection of the test compound.
(§7) The animals are considered cataleptic when they remain immobile during a period of 15 seconds. This cataleptic reaction is designated: + (plus). Untreated animals climb normally up and down the wire netting. The absence of catalepsy is designated: - (minus). The results are expressed as fractions as follows: 0/5, 1/5, 2/5, 3/5, 4/5 and 5/5 in which 0, 1, 2, 3,4 and 5 represent the number of cataleptic animals out of five animals tested.

NMRI male mice = assay: Methylphenidate antagonism in mice; assay type: in vivo; details: for ED50: Mus musculus, ip
Method: 1. As animals were used NMRI male mice weighing 18-25 grams.
3 × 2 or 5 × 2 mice are used for each dose level. Thirty minutes, 1 hour, 2 hours, 3 hours etc. after i.p. injection of test substance, methylphenidate, 60 mg/kg, is injected s.c. At each time interval separate groups of mice were used. After administration of methylphenidate the mice are placed in the observation cages, 2 in each cage, where they remain for 1 hour. The cages are placed on corrugated paper, the corrugations facing upwards. It is examined whether or not the mice have been biting the corrugated paper. […] The peak effect was determined for the test substances and also for a number of known neuroleptics.

male Wistar rats = assay: Catalepsy-inducing effect in rats; assay type: in vivo; details: catalepsy (rats) / methylphenidate antagonism peak effect (mice)
Method: as §1, §2, §3, §4, §5, §6, §7

rats = assay: Antagonism of amphetamine-induced stereotyped behaviour in rats; assay type: in vivo; details: 5 mg/kg s.c.
Method: The modification used by us was as follows:
The animals were then placed in individual cages. […] The absence of stereotypy was interpreted as a drug effect. ED50 values for protection against stereotypy were determined. All compounds were tested at a minimum of three dose levels using 10 rats per dose, and the observer was kept unaware of the identity of the groups until after the experiment.

[2] = tested on: adult purebred Beagle dogs; assay: Apomorphine antagonism in dogs; assay type: in vivo
From the text: Especially when testing esters of the compounds of Formula I it has been found advantageous to use the wellrecognized test which is based upon the fact that strong neuroleptics antagonize apomorphine induced vomiting in dogs. The test is described by P. A. J. Janssen, C. J. E. Niemegeers and K. H. L. Schellehaus: "Is it possible to predict the clinical effects of neuroleptic drugs (major tranquillizers) from animal data" ?, Part II, Arzneimittel Forschung, 15, 1196-1206, 1965. In order to evaluate esters of the compounds of Formula I a modified method is described by M. Nymark et al. in Acta pharmacol. et toxicol. 1973, 33, 363-376. The test may be described shortly as follows:
As animals were used adult purebred Beagle dogs of either sex. The threshold-dose of apomorphine hydrochloride for the induction of vomiting in the dogs has been determined to be 0.025 mg/kg intravenously. After this dose vomiting occurs within a few minutes of the injection. Four dogs were used for each dose level of the drug, which was injected subcutaneously at the back of the neck. At different times after the drug administration the dogs were then challenged with apomorphine according to an "up-and-down" schedule using the dose-range 0.025- 0.400 mg/kg intravenously geometrically spaced. […] In this way it was possible to estimate at which level of apomorphine the dogs were protected at a given time. The dogs were fed half an hour before testing to ensure an easy vomiting.

[3] = pure α-isomers of known neuroleptics; cited from earlier work
[4] = rats, s.c., dose producing catalepsy in 50% of the animals, read-out: Catalepsy ED50 max.
[5] = read-out: Methylphenidate antagonism, peak effect ED50
[6] = mice, i.p., 24 h after injection, read-out: Methylphenidate antagonism ED50, 24 h
[7] = mice, i.p., peak effect, methylphenidate 60 mg/kg s.c., read-out: Methylphenidate antagonism, peak effect ED50

| SMILES | ED50 [1, 4] | Ratio Cat./Meth (catalepsy/methylphenidate antagonism) (male Wistar rats) | ED50 (NMRI male mice; [6]) | ED50 (NMRI male mice; [7]) | other results |
| --- | --- | --- | --- | --- | --- |
| OCCC1CCN(CCC=C2c3ccc(F)cc3Sc3ccc(C(F)(F)F)cc32)CC1 [Substance 13] | 0.05 mg/kg |  |  |  | ED50 (NMRI male mice; 24 h, read-out: Methylphenidate antagonism ED50, 24 h): 0.03 mg/kg; ED50 (NMRI male mice; [5]): 0.03 mg/kg |
| CN(C)CCCN1c2ccccc2Sc2ccc(Cl)cc21 [chlorpromazine, reference compound] |  | 1.0 |  |  | ED50 [1]: 4 mg/kg; ED50 (NMRI male mice; [5]): 4 mg/kg |
| CCCCCCCCCCCCCCCCCCCCCC(=O)OCCC1CCN(CCC=C2c3ccc(F)cc3Sc3ccc(C(F)(F)F)cc32)CC1 [behenic acid ester of Lu 12-331, behenic acid ester of the alpha-isomer of 2-trifluoromethyl-6-fluoro-9-(3-(4-(2-hydroxyethyl)-1-piperidyl)propylidene)-thiaxanthene] |  |  |  |  | duration of protection against amphetamine-induced stereotypies (rats): 21 days; sedation (rats): hardly any sedation; sedation compared with the palmitic acid ester ([2]; 1 mg/kg subcutaneously as Lu 12-331, first week): less sedation in the first week; duration of maximal protection ([2]; 1.6 mg/kg s.c. of ester): 15 days; time after which the effect had disappeared ([2]; 1.6 mg/kg s.c. of ester): 26 days; maximal protection against apomorphine ([2]; 1.6 mg/kg s.c. of ester ~ 1 mg/kg of Lu 12-331): 16 × threshold dose of apomorphine; protection against apomorphine 21 days after the injection ([2]; 1.6 mg/kg s.c. of ester, 21 days): ~ 12 × threshold dose; sedation ([2]; 1.6 mg/kg s.c. of ester, at any time): No sedation |
| CN1CCN(CCCC2c3ccc(F)cc3Sc3ccc(C(F)(F)F)cc32)CC1 (centres unmarked) [Substance 2, 2-trifluoromethyl-6-fluoro-9-(3-(4-methyl-1-piperazinyl)propyl)thiaxanthene] | 3.1 mg/kg | 10 | > 10 mg/kg | 0.3 mg/kg | duration of peak effect (NMRI male mice; mice, i.p.): > 5 h |
| CCCCCCCCCC(=O)OCCN1CCN(CC/C=C2/c3ccccc3Sc3ccc(C(F)(F)F)cc32)CC1 [reference compound] |  |  |  |  | day after the injection on which the effect had disappeared ([2]; 2 mg/kg s.c.): 11 days; degree of protection against apomorphine ([2]; 2 mg/kg s.c.): 3 × threshold dose |
| CN1CCN(CC/C=C2/c3ccccc3Sc3ccc(S(=O)(=O)N(C)C)cc32)CC1 [Thiothixene, reference compound] |  | 0.14 | > 40 mg/kg | 0.4 mg/kg | ED50 [1]: 0.06 mg/kg; activity of the α-isomer relative to the β-isomer (in words) [3]: most active isomers |
| OCCN1CCN(CCCC2c3ccc(C(F)(F)F)cc3Sc3ccc(C(F)(F)F)cc32)CC1 (centres unmarked) [Substance 11, reference compound] | > 20 mg/kg |  |  | > 10 mg/kg |  |
| CN1CCN(CCCC2c3ccc(F)cc3Sc3ccc(S(=O)(=O)N(C)C)cc32)CC1 (centres unmarked) [Substance 4, 2-dimethylsulfamoyl-6-fluoro-9-(3-(4-methylpiperazine-1-yl)propyl)-thiaxanthene] | 3.1 mg/kg | 3.1 | > 5 mg/kg | 1 mg/kg |  |
| OCCN1CCN(CC/C=C2/c3ccccc3Sc3ccc(C(F)(F)F)cc32)CC1 [α-Flupenthixol, reference compound] |  | 1.74 | 17 mg/kg | 0.07 mg/kg | ED50 [1]: 0.12 mg/kg; duration of peak effect (NMRI male mice; mice, i.p.): 6 h; activity of the α-isomer relative to the β-isomer (in words) [3]: most active isomers |
| CN(C)S(=O)(=O)c1ccc2c(c1)C(=CCCN1CCC(CCO)CC1)c1ccc(F)cc1S2 [Substance 12, 2-Dimethylsulfamoyl-6-fluoro-9-(3-(4-(2-hydroxyethyl)-1-piperidyl)propylidene)-thiaxanthene] | 0.69 mg/kg | 0.8 | > 10 mg/kg | 0.87 mg/kg |  |
| OCCN1CCN(CCCC2c3cc(C(F)(F)F)ccc3Sc3c2cccc3C(F)(F)F)CC1 (centres unmarked) [Substance 10, reference compound] | > 20 mg/kg |  |  | > 10 mg/kg |  |
